Tests used:
Assay type in all cases: in vivo
[1] = test system: barnyardgrass (Echinochloa crus-galli); assay: Test B flooded paddy test plant response
Method in brief: (§1)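 Paddy-water application to 2-leaf plants in pots held under 3 cm of flooding; response is a 0–100 visual control rating against controls after 13 to 15 days, and a dash marks a missing result.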

[2] = test system: umbrella sedge (Cyperus difformis); assay: Test B flooded paddy test plant response
Method in brief: as §1

[3] = test system: wheat (Triticum aestivum); assay: Test A pre-/postemergence plant response
Method in brief: (§2)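 Scores reflect visual plant injury relative to untreated controls on a 0–100 scale, recorded approximately 10 days after simultaneous preemergence soil spraying and postemergence spraying of one- to two-leaf seedlings grown in loam–sand.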

[4] = test system: barnyardgrass (Echinochloa crus-galli); assay: Test A pre-/postemergence plant response
Method in brief: as §2

[5] = test system: morningglory (Ipomoea coccinea); assay: Test A pre-/postemergence plant response
Method in brief: as §2

[6] = test system: pigweed (Amaranthus retroflexus); assay: Test A pre-/postemergence plant response
Method in brief: as §2

[7] = test system: velvetleaf (Abutilon theophrasti); assay: Test A pre-/postemergence plant response
Method in brief: as §2

[8] = test system: giant foxtail (Setaria faberi); assay: Test A pre-/postemergence plant response
Method in brief: as §2

[9] = test system: large crabgrass (Digitaria sanguinalis); assay: Test A pre-/postemergence plant response
Method in brief: as §2

corn (Zea mays) = assay: Test A pre-/postemergence plant response
Method in brief: as §2

[10] = test system: windgrass (Apera spica-venti); assay: Test B postemergence plant response; conditions: for Windgrass plant response rating: 8 g ai/ha, postemergence, 0-100 scale; for Plant response rating, Windgrass: Postemergence
Method in brief: (§3)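 Following treatment of plants 2 to 18 cm high after emergence, pots were held under glass for 13 to 15 days; efficacy was then graded visually, 100 denoting complete control and a dash no test result.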

[11] = test system: chickweed (Stellaria media); assay: Test B postemergence plant response; conditions: for Chickweed plant response rating: 8 g ai/ha, postemergence, 0-100 scale; for Plant response rating, Chickweed: Postemergence
Method in brief: as §3

[12] = test system: winter barley (Hordeum vulgare); assay: Test B postemergence plant response; conditions: for Barley plant response rating: 8 g ai/ha, postemergence, 0-100 scale; for Plant response rating, Barley: Postemergence
Method in brief: as §3

[13] = test system: canarygrass (Phalaris minor); assay: Test B postemergence plant response; conditions: for Canarygrass plant response rating: 8 g ai/ha, postemergence, 0-100 scale; for Plant response rating, Canarygrass: Postemergence
Method in brief: as §3

[14] = Flood (flooded paddy test), 62 g ai/ha, scale 0 to 100, 0 no effect, 100 complete control
[15] = Flood (flooded paddy test), 125 g ai/ha, scale 0 to 100, 0 no effect, 100 complete control
[16] = Flood (flooded paddy test), 250 g ai/ha, scale 0 to 100, 0 no effect, 100 complete control
[17] = Flood, 31 g ai/ha, scale 0 to 100
[18] = Postemergence, 31 g ai/ha, 0 to 100 scale (0 no effect, 100 complete control)
[19] = Postemergence, 125 g ai/ha, 0 to 100 scale, 0 no effect, 100 complete control
[20] = Preemergence, 31 g ai/ha, 0 to 100 scale, 0 is no effect, 100 is complete control
[21] = Preemergence, 125 g ai/ha, 0 to 100 scale (0 no effect, 100 complete control)
[22] = 62 g ai/ha, scale 0 to 100, 0 no effect, 100 complete control
[23] = 31 g ai/ha, scale 0 to 100, 0 no effect, 100 complete control
[24] = 16 g ai/ha, scale 0 to 100, 0 no effect, 100 complete control
[25] = Postemergence, 500 g ai/ha, 0 to 100 scale, 0 no effect, 100 complete control
[26] = Preemergence, 500 g ai/ha, 0 to 100 scale (0 no effect, 100 complete control)

Cc1cc(-c2ccc(Cl)cc2)nn1-c1c(OC(=O)C(C)C)cnn(C)c1=O [Compound 34]
Plant response rating, Barnyardgrass [1, 14]: 50 | Plant response rating, Barnyardgrass [1, 15]: 100 | Plant response rating, Barnyardgrass [1, 16]: 100 | Plant response rating, Barnyardgrass [1, 17]: 40 | Plant response rating, Sedge, Umbrella [2, 14]: 0 | Plant response rating, Sedge, Umbrella [2, 15]: 0 | Plant response rating, Sedge, Umbrella [2, 16]: 0 | Plant response rating, Sedge, Umbrella [2, 17]: 0 | Plant response rating, Wheat [3, 18]: 40 | Plant response rating, Wheat [3, 19]: 60 | Plant response rating, Wheat [3, 20]: 30 | Plant response rating, Wheat [3, 21]: 70 | Plant response rating, Barnyardgrass [4, 18]: 90 | Plant response rating, Barnyardgrass [4, 19]: 100 | Plant response rating, Barnyardgrass [4, 20]: 70 | Plant response rating, Barnyardgrass [4, 21]: 100 | Plant response rating, Morningglory [5, 18]: 0 | Plant response rating, Morningglory [5, 19]: 0 | Plant response rating, Morningglory [5, 20]: 0 | Plant response rating, Morningglory [5, 21]: 0 | Plant response rating, Pigweed [6, 18]: 0 | Plant response rating, Pigweed [6, 19]: 10 | Plant response rating, Pigweed [6, 20]: 0 | Plant response rating, Pigweed [6, 21]: 0 | Plant response rating, Velvetleaf [7, 18]: 0 | Plant response rating, Velvetleaf [7, 19]: 0 | Plant response rating, Velvetleaf [7, 20]: 0 | Plant response rating, Velvetleaf [7, 21]: 0 | Plant response rating, Foxtail, Giant [8, 18]: 90 | Plant response rating, Foxtail, Giant [8, 19]: 100 | Plant response rating, Foxtail, Giant [8, 20]: 100 | Plant response rating, Foxtail, Giant [8, 21]: 100 | Plant response rating, Crabgrass, Large [9, 18]: 70 | Plant response rating, Crabgrass, Large [9, 19]: 100 | Plant response rating, Crabgrass, Large [9, 20]: 80 | Plant response rating, Crabgrass, Large [9, 21]: 90 | Plant response rating, Corn (corn (Zea mays); [18]): 70 | Plant response rating, Corn (corn (Zea mays); [19]): 90 | Plant response rating, Corn (corn (Zea mays); [20]): 20 | Plant response rating, Corn (corn (Zea mays); [21]): 60 | Windgrass plant response rating [10]: 0 | Plant response rating, Windgrass ([10]; 16 g ai/ha, scale 0 to 100): 10 | Plant response rating, Windgrass [10, 22]: 80 | Chickweed plant response rating [11]: 0 | Plant response rating, Chickweed ([11]; 16 g ai/ha, scale 0 to 100): 0 | Plant response rating, Chickweed [11, 23]: 0 | Plant response rating, Chickweed [11, 22]: 0 | Barley plant response rating [12]: 0 | Plant response rating, Barley [12, 24]: 0 | Plant response rating, Barley [12, 23]: 0 | Plant response rating, Barley [12, 22]: 15 | Canarygrass plant response rating [13]: 10 | Plant response rating, Canarygrass ([13]; 16 g ai/ha, scale 0 to 100): 10 | Plant response rating, Canarygrass [13, 23]: 20 | Plant response rating, Canarygrass [13, 22]: 20

Cc1cc(-c2ccc(Br)cc2)nn1-c1c(O)cnn(C)c1=O [Compound 4]
Plant response rating, Barnyardgrass [1, 14]: 60 | Plant response rating, Barnyardgrass [1, 15]: 70 | Plant response rating, Barnyardgrass [1, 16]: 75 | Plant response rating, Barnyardgrass [1, 17]: 0 | Plant response rating, Sedge, Umbrella [2, 14]: 60 | Plant response rating, Sedge, Umbrella [2, 15]: 90 | Plant response rating, Sedge, Umbrella [2, 16]: 100 | Plant response rating, Sedge, Umbrella [2, 17]: 40 | Plant response rating, Wheat [3, 19]: 60 | Plant response rating, Wheat [3, 25]: 80 | Plant response rating, Wheat [3, 21]: 70 | Plant response rating, Wheat [3, 26]: 100 | Plant response rating, Barnyardgrass [4, 19]: 100 | Plant response rating, Barnyardgrass [4, 25]: 100 | Plant response rating, Barnyardgrass [4, 21]: 100 | Plant response rating, Barnyardgrass [4, 26]: 100 | Plant response rating, Morningglory [5, 19]: 0 | Plant response rating, Morningglory [5, 25]: 20 | Plant response rating, Morningglory [5, 21]: 0 | Plant response rating, Morningglory [5, 26]: 0 | Plant response rating, Pigweed [6, 19]: 0 | Plant response rating, Pigweed [6, 25]: 20 | Plant response rating, Pigweed [6, 21]: 0 | Plant response rating, Pigweed [6, 26]: 0 | Plant response rating, Velvetleaf [7, 19]: 20 | Plant response rating, Velvetleaf [7, 25]: 60 | Plant response rating, Velvetleaf [7, 21]: 0 | Plant response rating, Velvetleaf [7, 26]: 10 | Plant response rating, Foxtail, Giant [8, 19]: 100 | Plant response rating, Foxtail, Giant [8, 25]: 100 | Plant response rating, Foxtail, Giant [8, 21]: 100 | Plant response rating, Foxtail, Giant [8, 26]: 100 | Plant response rating, Crabgrass, Large [9, 19]: 100 | Plant response rating, Crabgrass, Large [9, 25]: 100 | Plant response rating, Crabgrass, Large [9, 21]: 100 | Plant response rating, Crabgrass, Large [9, 26]: 100 | Plant response rating, Corn (corn (Zea mays); [19]): 90 | Plant response rating, Corn (corn (Zea mays); [25]): 100 | Plant response rating, Corn (corn (Zea mays); [21]): 70 | Plant response rating, Corn (corn (Zea mays); [26]): 90 | Plant response rating, Windgrass [10, 23]: 90 | Plant response rating, Windgrass ([10]; 62 g ai/ha, scale 0 to 100): 100 | Plant response rating, Windgrass ([10]; 125 g ai/ha, scale 0 to 100): 100 | Plant response rating, Windgrass ([10]; 250 g ai/ha, scale 0 to 100): 100 | Plant response rating, Chickweed [11, 23]: 0 | Plant response rating, Chickweed ([11]; 62 g ai/ha, scale 0 to 100): 0 | Plant response rating, Chickweed ([11]; 125 g ai/ha, scale 0 to 100): 0 | Plant response rating, Chickweed ([11]; 250 g ai/ha, scale 0 to 100): 20 | Plant response rating, Barley [12, 23]: 0 | Plant response rating, Barley ([12]; 62 g ai/ha, scale 0 to 100): 10 | Plant response rating, Barley ([12]; 125 g ai/ha, scale 0 to 100): 90 | Plant response rating, Barley ([12]; 250 g ai/ha, scale 0 to 100): 95 | Plant response rating, Canarygrass [13, 23]: 80 | Plant response rating, Canarygrass ([13]; 62 g ai/ha, scale 0 to 100): 90 | Plant response rating, Canarygrass ([13]; 125 g ai/ha, scale 0 to 100): 100 | Plant response rating, Canarygrass ([13]; 250 g ai/ha, scale 0 to 100): 100

CCc1cc(-c2ccc(F)cc2)nn1-c1c(O)cnn(C)c1=O [Compound 25]
Plant response rating, Barnyardgrass [1, 14]: 0 | Plant response rating, Barnyardgrass [1, 16]: 0 | Plant response rating, Sedge, Umbrella [2, 14]: 0 | Plant response rating, Sedge, Umbrella [2, 16]: 0 | Plant response rating, Wheat [3, 18]: 0 | Plant response rating, Wheat [3, 19]: 20 | Plant response rating, Wheat [3, 20]: 0 | Plant response rating, Wheat [3, 21]: 50 | Plant response rating, Barnyardgrass [4, 18]: 80 | Plant response rating, Barnyardgrass [4, 19]: 100 | Plant response rating, Barnyardgrass [4, 20]: 50 | Plant response rating, Barnyardgrass [4, 21]: 100 | Plant response rating, Morningglory [5, 18]: 0 | Plant response rating, Morningglory [5, 19]: 0 | Plant response rating, Morningglory [5, 20]: 0 | Plant response rating, Morningglory [5, 21]: 0 | Plant response rating, Pigweed [6, 18]: 0 | Plant response rating, Pigweed [6, 19]: 0 | Plant response rating, Pigweed [6, 20]: 0 | Plant response rating, Pigweed [6, 21]: 0 | Plant response rating, Velvetleaf [7, 18]: 0 | Plant response rating, Velvetleaf [7, 19]: 0 | Plant response rating, Velvetleaf [7, 20]: 0 | Plant response rating, Velvetleaf [7, 21]: 0 | Plant response rating, Foxtail, Giant [8, 18]: 90 | Plant response rating, Foxtail, Giant [8, 19]: 100 | Plant response rating, Foxtail, Giant [8, 20]: 40 | Plant response rating, Foxtail, Giant [8, 21]: 100 | Plant response rating, Crabgrass, Large [9, 18]: 60 | Plant response rating, Crabgrass, Large [9, 19]: 90 | Plant response rating, Crabgrass, Large [9, 20]: 20 | Plant response rating, Crabgrass, Large [9, 21]: 90 | Plant response rating, Corn (corn (Zea mays); [18]): 20 | Plant response rating, Corn (corn (Zea mays); [19]): 80 | Plant response rating, Corn (corn (Zea mays); [20]): 0 | Plant response rating, Corn (corn (Zea mays); [21]): 50 | Windgrass plant response rating [10]: 40 | Plant response rating, Windgrass ([10]; 16 g ai/ha, scale 0 to 100): 60 | Plant response rating, Windgrass [10, 23]: 60 | Plant response rating, Windgrass ([10]; 62 g ai/ha, scale 0 to 100): 98 | Chickweed plant response rating [11]: 0 | Plant response rating, Chickweed ([11]; 16 g ai/ha, scale 0 to 100): 0 | Plant response rating, Chickweed [11, 23]: 0 | Plant response rating, Chickweed ([11]; 62 g ai/ha, scale 0 to 100): 0 | Barley plant response rating [12]: 0 | Plant response rating, Barley [12, 24]: 0 | Plant response rating, Barley [12, 23]: 0 | Plant response rating, Barley ([12]; 62 g ai/ha, scale 0 to 100): 0 | Canarygrass plant response rating [13]: 0 | Plant response rating, Canarygrass ([13]; 16 g ai/ha, scale 0 to 100): 0 | Plant response rating, Canarygrass [13, 23]: 0 | Plant response rating, Canarygrass ([13]; 62 g ai/ha, scale 0 to 100): 10

From patent publication US20100267561A1, “HERBICIDAL PYRIDAZINONE DERIVATIVES” (priority 2007, published 2010)
